Results on 18 compounds are retold here after US10259810B2, “N-sulfonylated pyrazolo[3,4-b]pyridin-6-carboxamides and method of use” (AbbVie S.à.r.l., priority 2015, dated 2019).

Test [1] has as its target T1, ΔF508-CFTR (Homo sapiens, UniProt P13569, DEL508-508).
T1 construct: host or cells: CFBE41o-, doxycycline-inducible
Put plainly: CFTR cell surface levels using HRP-tagged ΔF508-CFTR expressing CFBE cells, intrinsic corrector capacity. Details: % Activation: concentration or dose not given beside the values. The format is cell-based. Particulars: HRP-tagged ΔF508-CFTR expressing CFBE41o- cells, compound alone (intrinsic corrector capacity), 20 hours at 33° C.; for EC50: read-out: EC50. The gist of the method: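 Read-out: chemiluminescent HRP activity of ECL4-HRP-tagged ΔF508-CFTR at the cell surface, 15 min substrate in dark. Normalized as 100×(sample−DMSO)/(positive control−DMSO).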

Test [2] concerns the target T1, ΔF508-CFTR. Put plainly: CFTR cell surface levels using HRP-tagged ΔF508-CFTR expressing CFBE cells, in the presence of a co-corrector. The test is classed as cell-based. To be noted: HRP-tagged ΔF508-CFTR CFBE cells, in the presence of 3 μM co-corrector; for EC50: read-out: EC50. The method in brief:
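Chemiluminescent read-out of surface HRP (15 min, dark) after PBS washes. Activity is normalized as 100×(sample−DMSO)/(3 μM co-corrector alone−DMSO).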

T1 sequence (P13569 with tags, fused parts or gaps DEL508-508): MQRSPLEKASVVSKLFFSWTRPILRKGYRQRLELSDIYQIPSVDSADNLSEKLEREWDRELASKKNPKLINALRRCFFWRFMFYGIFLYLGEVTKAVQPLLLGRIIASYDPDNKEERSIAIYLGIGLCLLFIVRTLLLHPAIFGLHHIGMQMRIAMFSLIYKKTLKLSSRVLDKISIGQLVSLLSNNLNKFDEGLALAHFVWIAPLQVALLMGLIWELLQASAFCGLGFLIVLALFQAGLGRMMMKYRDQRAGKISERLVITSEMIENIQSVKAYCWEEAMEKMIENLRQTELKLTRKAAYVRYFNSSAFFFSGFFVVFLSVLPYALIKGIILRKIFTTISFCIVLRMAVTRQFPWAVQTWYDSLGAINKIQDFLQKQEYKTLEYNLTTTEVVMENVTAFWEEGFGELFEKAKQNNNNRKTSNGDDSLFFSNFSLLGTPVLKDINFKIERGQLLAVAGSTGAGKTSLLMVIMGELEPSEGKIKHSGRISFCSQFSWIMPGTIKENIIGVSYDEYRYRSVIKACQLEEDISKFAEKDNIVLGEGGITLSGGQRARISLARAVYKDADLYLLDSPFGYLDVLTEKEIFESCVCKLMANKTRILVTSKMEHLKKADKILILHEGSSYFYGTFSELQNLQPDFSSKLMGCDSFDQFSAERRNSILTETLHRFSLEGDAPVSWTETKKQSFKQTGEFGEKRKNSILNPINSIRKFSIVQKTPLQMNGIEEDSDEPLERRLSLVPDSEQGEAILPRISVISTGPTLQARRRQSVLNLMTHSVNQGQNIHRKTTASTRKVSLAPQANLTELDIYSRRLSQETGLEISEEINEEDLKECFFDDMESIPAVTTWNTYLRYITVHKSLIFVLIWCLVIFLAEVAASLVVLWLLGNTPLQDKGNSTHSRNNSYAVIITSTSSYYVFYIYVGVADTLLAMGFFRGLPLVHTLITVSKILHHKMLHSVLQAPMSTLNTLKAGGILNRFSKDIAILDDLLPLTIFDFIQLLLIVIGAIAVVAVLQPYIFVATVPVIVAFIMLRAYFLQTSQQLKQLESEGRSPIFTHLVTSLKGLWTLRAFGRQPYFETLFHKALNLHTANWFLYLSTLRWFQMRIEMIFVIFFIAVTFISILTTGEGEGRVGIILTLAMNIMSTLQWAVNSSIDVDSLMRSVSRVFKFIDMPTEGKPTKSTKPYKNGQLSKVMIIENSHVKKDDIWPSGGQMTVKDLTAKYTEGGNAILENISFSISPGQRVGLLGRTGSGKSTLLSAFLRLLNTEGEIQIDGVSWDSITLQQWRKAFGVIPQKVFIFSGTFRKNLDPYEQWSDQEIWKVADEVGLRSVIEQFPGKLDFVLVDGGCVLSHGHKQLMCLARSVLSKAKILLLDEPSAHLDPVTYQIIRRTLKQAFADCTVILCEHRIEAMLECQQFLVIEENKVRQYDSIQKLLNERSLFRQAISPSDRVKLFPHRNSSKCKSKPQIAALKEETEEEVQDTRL

The term EC50 denotes the midpoint of the concentration-response curve. `CN(C)S(=O)(=O)NC(=O)c1cc(N2CCC(N3CCC(C(F)(F)F)C3)CC2)c2c(C3CCC3)nn(-c3ccc(F)cc3)c2n1` (stereo not drawn) [Compound 560, 3-cyclobutyl-N-(dimethylsulfamoyl)-1-(4-fluorophenyl)-4-{4-[3-(trifluoromethyl)pyrrolidin-1-yl]piperidin-1-yl}-1H-pyrazolo[3,4-b]pyridine-6-carboxamide]: in test [1], the “% Activation” value was found to be 260.4% and the EC50 came to 96.3 nM. In test [2], the “% Activation” value stood at 544.45% and the EC50 was determined as 66.1 nM.
For `CN(C)S(=O)(=O)NC(=O)c1cc(N2CCC(N3CCCC(F)C3)CC2)c2c(C3CCC3)nn(-c3ccc(F)cc3)c2n1` (stereo not drawn) [Compound 563, 3-cyclobutyl-N-(dimethylsulfamoyl)-4-(3-fluoro[1,4'-bipiperidin]-1'-yl)-1-(4-fluorophenyl)-1H-pyrazolo[3,4-b]pyridine-6-carboxamide] the same measures were 298.9%, 198 nM, 542.9% and 111 nM.
Take `CS(=O)(=O)NC(=O)c1cc(N2CCC(N3CCC(C(F)(F)F)C3)CC2)c2c(C3CCC3)nn(-c3ccc(F)cc3)c2n1` (stereo not drawn) [Compound 564, 3-cyclobutyl-1-(4-fluorophenyl)-N-(methanesulfonyl)-4-{4-[3-(trifluoromethyl)pyrrolidin-1-yl]piperidin-1-yl}-1H-pyrazolo[3,4-b]pyridine-6-carboxamide]: the “% Activation” value in test [1] was found to be 361.35%; in test [2], 587.4%. Also, the values for the EC50 in test [1] and in test [2] were 118 nM and 40.8 nM, respectively.
On the same counts, the results for `CS(=O)(=O)NC(=O)c1cc(N2CCC(N3CCC(C#N)C3)CC2)c2c(C3CCC3)nn(-c3ccc(F)cc3)c2n1` (stereo not drawn) [Compound 565, 4-[4-(3-cyanopyrrolidin-1-yl)piperidin-1-yl]-3-cyclobutyl-1-(4-fluorophenyl)-N-(methanesulfonyl)-1H-pyrazolo[3,4-b]pyridine-6-carboxamide] are 373.15%, 637.53%, 182 nM and 69.9 nM.
For `CS(=O)(=O)NC(=O)c1cc(N2CCC(N3CCCC(C#N)C3)CC2)c2c(C3CCC3)nn(-c3ccc(F)cc3)c2n1` (stereo not drawn) [Compound 566, 4-(3-cyano[1,4'-bipiperidin]-1'-yl)-3-cyclobutyl-1-(4-fluorophenyl)-N-(methanesulfonyl)-1H-pyrazolo[3,4-b]pyridine-6-carboxamide] the same measures were 365.1%, 708.8%, 112 nM and 400 nM.
On the same counts, the results for `CS(=O)(=O)NC(=O)c1cc(N2CCC(N3CCCC(F)C3)CC2)c2c(C3CCC3)nn(-c3ccc(F)cc3)c2n1` (stereo not drawn) [Compound 567, 3-cyclobutyl-4-(3-fluoro[1,4'-bipiperidin]-1'-yl)-1-(4-fluorophenyl)-N-(methanesulfonyl)-1H-pyrazolo[3,4-b]pyridine-6-carboxamide] are 312.2%, 539.8%, 139 nM and 56.3 nM.
As to `O=C(NS(=O)(=O)N1CCCCC1)c1cc(N2CCC(N3CCOCC3)CC2)c2c(C3CCC3)nn(-c3ccc(F)cc3)c2n1` [Compound 568, 3-cyclobutyl-1-(4-fluorophenyl)-4-[4-(morpholin-4-yl)piperidin-1-yl]-N-(piperidine-1-sulfonyl)-1H-pyrazolo[3,4-b]pyridine-6-carboxamide], the figures for the “% Activation” value in test [1] and in test [2] were 240.65% and 461%, respectively. The half-maximal effective concentration (EC50) is 77.5 nM in test [1] and 46.3 nM in test [2].
For `O=C(NS(=O)(=O)N1CC(F)C1)c1cc(N2CCC(N3CCOCC3)CC2)c2c(C3CCC3)nn(-c3ccc(F)cc3)c2n1` [Compound 569, 3-cyclobutyl-N-(3-fluoroazetidine-1-sulfonyl)-1-(4-fluorophenyl)-4-[4-(morpholin-4-yl)piperidin-1-yl]-1H-pyrazolo[3,4-b]pyridine-6-carboxamide] the same measures were 220.77%, 436.13%, 112 nM and 88.9 nM.
Take `CN(C)S(=O)(=O)NC(=O)c1cc(N2CCC(N3CCCC(C(F)(F)F)C3)CC2)c2c(C3CCC3)nn(-c3ccc(F)cc3)c2n1` (stereo not drawn) [Compound 571, 3-cyclobutyl-N-(dimethylsulfamoyl)-1-(4-fluorophenyl)-4-[3-(trifluoromethyl)[1,4'-bipiperidin]-1'-yl]-1H-pyrazolo[3,4-b]pyridine-6-carboxamide]: in test [1], the “% Activation” value is on record as 268.15% and the EC50 was 129 nM. Besides, in test [2], the “% Activation” value is 487.9% and the EC50 stood at 77.8 nM.
For `COC1CCCN(C2CCN(c3cc(C(=O)NS(=O)(=O)N(C)C)nc4c3c(C3CCC3)nn4-c3ccc(F)cc3)CC2)C1` (stereo not drawn) [Compound 572, 3-cyclobutyl-N-(dimethylsulfamoyl)-1-(4-fluorophenyl)-4-(3-methoxy[1,4'-bipiperidin]-1'-yl)-1H-pyrazolo[3,4-b]pyridine-6-carboxamide] the same measures were 237.55%, 295 nM, 412.9% and 225 nM.
As for `CN(C)S(=O)(=O)NC(=O)c1cc(N2CCC(N3CCOC(C)(C)C3)CC2)c2c(C3CCC3)nn(-c3ccc(F)cc3)c2n1` [Compound 573, 3-cyclobutyl-4-[4-(2,2-dimethylmorpholin-4-yl)piperidin-1-yl]-N-(dimethylsulfamoyl)-1-(4-fluorophenyl)-1H-pyrazolo[3,4-b]pyridine-6-carboxamide], the “% Activation” value in test [1] came out at 270.53%; in test [2] it was 467.57%. For the same compound, the values for the 50% effective concentration (EC50) in test [1] and in test [2] were 104 nM and 58.5 nM, respectively.
For `CC(=O)NCCS(=O)(=O)NC(=O)c1cc(N2CCC(N3CCOCC3)CC2)c2c(C3CCC3)nn(-c3ccc(F)cc3)c2n1` [Compound 574, N-(2-acetamidoethanesulfonyl)-3-cyclobutyl-1-(4-fluorophenyl)-4-[4-(morpholin-4-yl)piperidin-1-yl]-1H-pyrazolo[3,4-b]pyridine-6-carboxamide] the same measures were 129.9%, 283.3%, 2760 nM and 542 nM.
For `COC[C@H]1CCCN1S(=O)(=O)NC(=O)c1cc(N2CCC(N3CCOCC3)CC2)c2c(C3CCC3)nn(-c3ccc(F)cc3)c2n1` [Compound 577, 3-cyclobutyl-1-(4-fluorophenyl)-N-[(2R)-2-(methoxymethyl)pyrrolidine-1-sulfonyl]-4-[4-(morpholin-4-yl)piperidin-1-yl]-1H-pyrazolo[3,4-b]pyridine-6-carboxamide] the same measures were 187.15%, 379.3%, 257 nM and 105 nM.
On the same counts, the results for `CN(C1CCOCC1)S(=O)(=O)NC(=O)c1cc(N2CCC(N3CCOCC3)CC2)c2c(C3CCC3)nn(-c3ccc(F)cc3)c2n1` [Compound 579, 3-cyclobutyl-1-(4-fluorophenyl)-N-[methyl(oxan-4-yl)sulfamoyl]-4-[4-(morpholin-4-yl)piperidin-1-yl]-1H-pyrazolo[3,4-b]pyridine-6-carboxamide] are 205%, 420.5%, 376 nM and 319 nM.
Regarding `O=C(NS(=O)(=O)N1CC(F)(F)C1)c1cc(N2CCC(N3CCOCC3)CC2)c2c(C3CCC3)nn(-c3ccc(F)cc3)c2n1` [Compound 580, 3-cyclobutyl-N-(3,3-difluoroazetidine-1-sulfonyl)-1-(4-fluorophenyl)-4-[4-(morpholin-4-yl)piperidin-1-yl]-1H-pyrazolo[3,4-b]pyridine-6-carboxamide], the “% Activation” value in test [1] amounted to 201.52%; in test [2], 387.45%. Also, the EC50 is 131 nM in test [1] and 52.4 nM in test [2].
For `C[C@H]1CN(c2cc(C(=O)NS(=O)(=O)N(C)C)nc3c2c(C2CCC2)nn3C2CCCCC2)CCN1Cc1ccccc1` [Compound 581, 4-[(3S)-4-benzyl-3-methylpiperazin-1-yl]-3-cyclobutyl-1-cyclohexyl-N-(dimethylsulfamoyl)-1H-pyrazolo[3,4-b]pyridine-6-carboxamide] the same measures were 33.38%, 191.3%, 370 nM and 761 nM.
With `C[C@@H]1CN(c2cc(C(=O)NS(=O)(=O)N(C)C)nc3c2c(C2CCC2)nn3C2CCCCC2)CCN1Cc1ccccc1` [Compound 582, 4-[(3R)-4-benzyl-3-methylpiperazin-1-yl]-3-cyclobutyl-1-cyclohexyl-N-(dimethylsulfamoyl)-1H-pyrazolo[3,4-b]pyridine-6-carboxamide], in test [1], the “% Activation” value is given as 75.38% and the 50% effective concentration (EC50) came out at 370 nM. Moreover, in test [2], the “% Activation” value is 245.15% and the EC50 is 271 nM.
For the compound `CN(C)S(=O)(=O)NC(=O)c1cc(N2CCC3(CC2)CCN(C2CC2)CC3)c2c(C3CCC3)nn(-c3ccc(F)cc3)c2n1` [Compound 584, 3-cyclobutyl-4-(9-cyclopropyl-3,9-diazaspiro[5.5]undecan-3-yl)-N-(dimethylsulfamoyl)-1-(4-fluorophenyl)-1H-pyrazolo[3,4-b]pyridine-6-carboxamide], in test [1], the “% Activation” value was 164.3% and the concentration for a half-maximal effect (EC50) came out at 177 nM. Also, in test [2], the “% Activation” value stood at 337.55% and the EC50 was 272 nM.
